The values that follow come from patent US6835563B1, “Compositions and methods for increasing cholesterol efflux and raising HDL ATP binding cassette transporter protein ABC1” (CV Therapeutics, priority 1999, dated 2004).

Assay [1] concerns TD fibroblasts. In words: HDL- and apo A-I-mediated [3H]cholesterol efflux from Tangier disease fibroblasts. The settings on record: HDL 40 μg protein/ml or apo A-I 10 μg/ml, up to 48 h. It is filed as cell-based, human. The method, then:
(§1) Cell Cultures: Human fibroblasts were obtained from skin explants from two normal subjects (NL1) and three unrelated patients with Tangier disease (TD). TD1 cells were obtained from a person with extremely low plasma HDL cholesterol and apo A-I levels and clinical symptoms typical of Tangier disease. […] TD3 cells were obtained from a person with Tangier disease who presented with orange tonsil remnants, asymmetrical motor neuropathy, plasma HDL cholesterol of 5 mg/dL, and LDL cholesterol of 16 mg/dL (Lawn et al., J. Clin. Invest., 104, R25-R31 (1999)). The normal cells and TD subject cells were immortalized as described in Oram et al., J. Lipid. Res., 40: 1769-1781 (1999). Briefly, the cells were transfected with amphotropic retroviruses containing vectors with inserts of human papillomavirus 16-oncogenes E6 and E7 and a neomycin resistance selectable marker. Control cells were infected with vector alone (mock-infected). Pooled cell populations were selected in the presence of G418 for two passages, after which G418 was excluded from the medium. Fibroblasts were used between the fifth and sixteenth passage (primary) or sixth and fourteenth passage (immortalized). The immortalized normal and TD cells were seeded into 16-mm wells or 35-mm dishes and grown to confluence in. Dulbecco's modified. Eagle's medium (DMEM) plus 10% fetal bovine serum (FBS) before experimental use. […]

Assay [2] concerns ABC1 mRNA. In words: ABC1 mRNA by quantitative RT-PCR in normal fibroblasts. It counts as cell-based, human. The settings on record: apo A-I 10 μg/ml 18-24 h. The method, then:
(§2) To determine whether ABC1 plays a rate-limiting role in cellular sterol efflux, the synthesis of ABC1 was measured under various cellular conditions related to cholesterol efflux processes. Specifically, normal fibroblasts and TD fibroblasts were individually exposed to conditions of excess cAMP, cholesterol, or Apo A-I. Cell cultures of normal skin fibroblasts and TD1 and TD2 fibroblasts were prepared as described in Example 1. The level of ABC1 mRNA was measured by RT-PCR. Cell cultures: Immortalized cell cultures of normal skin fibroblasts and TD1 and TD2 fibroblasts were prepared as described in Example 1. Cells were grown to subconfluence in DMEM/10% FBS before replacement with DMEM/BSA and the indicated additive for 24 or 48 hours. RNA was prepared as described in Example 2. RT-PCR: Quantitative PCR was carried out using the GeneAmp 5700 Sequence. Detection System (Perkin-Elmer Applied Biosystems, Foster City, Calif.). Briefly, 500 ng of DNase-treated mRNA was reverse transcribed using random hexamer primers at 2.5 μM. Approximately 5% of this reaction was amplified by PCR using the SYBR green core kit (PE. Applied Biosystems, Foster City, Calif.; Cat. #4304886) and human ABC1 primers […] […] The mRNA in each sample was quantitated by detecting the increase in fluorescence caused by SYBR green binding to the double-stranded amplification product generated during each PCR cycle. […]

Assay [3] deals with ABC1 mRNA. Description: ABC1 mRNA by quantitative RT-PCR in TD1 and TD2 fibroblasts. It is filed as cell-based, human. The conditions noted are these: apo A-I 10 μg/ml. As for the experimental part:
as §2

The subject of assay [4] is RAW 264.7 cells. In words: Apo A-I-mediated cholesterol efflux from cholesterol-loaded RAW 264.7 macrophage cells. The settings on record: control cells, apo A-I only.
Procedure: Assay to Measure Lipid Efflux: Apo AI-mediated efflux of cholesterol and, phospholipid was assayed according to the method described in. […] RAW 264.7 cells were cholesterol-loaded through the scavenger receptor by 24-hour incubation with acetylated LDL as described in Smith et al., J. Biol. Chem., 271:30647-30655 (1996). Briefly, RAW 264.7 cells in 24-well dishes were cholesterol-loaded and labeled overnight in 0.5 ml of DMEM supplemented with 50 μl/ml 1M glucose, 10 μl/ml 200 mM glutamine and 2% BSA and with 50 μg/ml acetylated low density lipoprotein (AcLDL) and [^3H]-cholesterol which had been pre-incubated for 30 minutes at 37° C. with AcLDL to yield a final concentration of 0.33 μCi/ml [^3H]-cholesterol. Cells were subsequently washed five times with PBS containing 1% BSA and incubated overnight (16-18 hours) in DMEM/BSA to allow for equilibrium of cholesterol pools. After equilibrium of cholesterol pools, cells were rinsed four times with PBS/BSA and incubated for one hour at 37° C. with DMEM/BSA before the efflux incubations. Efflux medium (DMEM/BSA) containing either albumin alone (control), albumin plus HDL (40 μg protein/ml), or albumin plus apo A-I (10 μg/ml, Biodesign International, Kennebunk, Me.) was added and the cells were incubated for 4, 24, or 48 hours. […] The radioactivity found in the culture medium was measured by scintillation counting after a 15-minute centrifugation at 12,000 g. The radioactivity in the cells was measured by scintillation counting after solubilization in 0.5 ml of 0.2M NaOH (Smith et al., J. Biol. Chem., 271:30647-30655 (1996)) or extraction in hexane:isopropanol (3:2 v/v) as described in Francis, et al., J. Clin. Invest., 96, 78-87 (1995). […] The efflux of cholesterol or phospholipid was expressed as the percentage of tritiated lipid counts in the medium over the total tritiated lipid counts recovered from the cells and medium (cpm medium/cpm (medium+lysate)×100).
Briefly, RAW 264.7 cells suspended at a density of 1.25×10^5 cells/ml were grown in DMEM/10% FBS supplemented with pyruvate. After 24 hours, the medium was removed and replaced with DMEM/BSA plus radiolabeled cholesterol (1 μCi/ml ^3[H]-cholesterol) and 50 μg/ml of acetylated LDL for 24 hours. The cells were then maintained for 24 hours in equilibrium medium consisting of DMEM/BSA plus either apo A-I alone (20 μg/ml), apo A-I and 8-bromo 3′, 5′ cAMP (1 mM) or apo A-I and rolipram (50 μM).
Assay [5] has as its system normal fibroblasts. In words: HDL- and apo A-I-mediated [3H]cholesterol efflux from normal fibroblasts. It counts as cell-based, human. The settings on record: HDL 40 μg protein/ml or apo A-I 10 μg/ml, up to 48 h. The method, then:
as §1

In assay [6] the test system is ABC1 protein. In words: Cell-surface ABC1 protein by biotin labeling and immunoprecipitation. The conditions noted are these: serum deprivation and cholesterol-loading (30 μg/ml, 48 h), normal and TD1 cells. It is filed as cell-based, human.
Procedure: Cell-surface labeling and immunoprecipitation was used to determine whether increased expression of ABC1 protein in the plasma membrane is correlated with an increase in cholesterol efflux (FIG. 10). The relative amount of ABC1 on the cell surface was determined by cross-linking surface proteins on intact cells with the membrane-impermeable agent sulfo-NHS-biotin, followed by the steps of membrane solubilization, immunoprecipitation with ABC1 antibody, SDS-PAGE, and detection with streptavidin.
Both normal and TD1 cells were cultured under control conditions and conditions known to increase apolipoprotein-mediated cholesterol efflux (Oram, et al., J. Lip. Res., 40: 1769-1781 (1999)). […] Cholesterol-loaded cells were grown to confluence in DMEM/10% FBS and then incubated in DMEM/BSA for 48 hours with 30 μg/ml cholesterol plus 18 hours with no additives (cholesterol). […]
Detection of ABC1 Protein: The eluted biotinylated proteins were subjected to SDS-PAGE (6% gel; 150V, 5 hours) and transferred to nitrocellulose membrane (200 mA, 18 hours). The nitrocellulose was probed with streptavidin-horse radish peroxidase (Amersham Pharmacia, Piscataway, N.J.; Cat. #RPN 1231) diluted 300-fold and detected by enhanced chemiluminescence labeling (ECL) according to vendor's protocol (Amersham Pharmacia, Piscataway, N.J.). […]

In the case of “apo A-I: apolipoprotein cholesterol acceptor (Biodesign International)”, the “efflux of [3H]-cholesterol on addition to albumin medium” value in assay [1] is reported as “little or no effect”; in assay [5] it was “promoted the efflux”. Also, in assay [2], the “ABC1 mRNA expression on subsequent exposure of cholesterol-loaded cells” value is “marked decrease”. In addition, the “ABC1 expression on exposure of cholesterol-loaded cells” value in assay [3] (TD1 cells) is reported as “did not alter ABC1 expression”; in assay [3] (TD2 cells), “slightly increased ABC1 expression”. For the same molecule, the cholesterol efflux in assay [4] worked out at 1890 c.p.m.

Take `CC(C)CCC[C@@H](C)[C@H]1CC[C@H]2[C@@H]3CC=C4C[C@@H](O)CC[C@]4(C)[C@H]3CC[C@]12C` [cholesterol]: the “cell-surface expression of ABC1” value in assay [6] is reported as “markedly increased”.
